# Test results taken from US8012956B2, “Tropane compounds” (Exelixis, Inc., priority 2007, dated 2011).
# pIC50: −log10 of the molar value.
# Target: HSP90 (Homo sapiens, UniProt P07900)
# Test: HSP90 inhibition (HSP90 IC50)
# Format: biochemical
row,Molecule,pIC50
1,CCNC(=O)[C@@H](NC(=O)c1ccc(N2C3CCC2CC(NC(=O)c2cccc(OC)c2C)C3)nc1)c1ccc(OC)cc1 (stereo partly drawn) [N-{(1S)-2-(ethylamino)-1-{4-(methyloxy)phenyl]-2-oxoethyl}-6-[3-endo-({[2-methyl-3-(methyloxy)phenyl]carbonyl}amino)-8-azabicyclo[3.2.1]oct-8-yl]pyridine-3-carboxamide],6.00 to 6.30
2,CCOCCCNC(=O)c1ccc(N2[C@@H]3CC[C@H]2C[C@@H](NC(=O)c2cccc(OC)c2C)C3)nc1 [N-[3-(ethyloxy)propyl]-6-[3-endo-({[2-methyl-3-(methyloxy)phenyl]carbonyl}amino)-8-azabicyclo[3.2.1]oct-8-yl]pyridine-3-carboxamide],5.70 to 6.00
3,COc1cccc(C(=O)N[C@H]2C[C@H]3CC[C@@H](C2)N3c2ccc(C(N)=O)cn2)c1Cl [6-[3-endo-({[2-chloro-3-(methyloxy)phenyl]carbonyl}amino)-8-azabicyclo[3.2.1]oct-8-yl]pyridine-3-carboxamide],5.00 to 5.70
4,"Cc1cc(C(=O)NC2CC3CCC(C2)N3c2ccc(C(=O)N[C@H]3CCCN(C(C)C)C3)cn2)c(C)cc1C(N)=O (stereo partly drawn) [2,5-dimethyl-N-{8-[5-({[(3S)-1-(1-methylethyl)piperidin-3-yl]amino}carbonyl)pyridin-2-yl]-8-azabacyclo[3.2.1]oct-3-endo-yl}benzene-1,4-dicarboxamide]",6.00 to 6.30
5,COc1cccc(C(=O)N[C@H]2C[C@H]3CC[C@@H](C2)N3c2ccc(C(=O)NCc3ccc(Br)cc3)cn2)c1C [N-[(4-bromophenyl)methyl]-6-[3-endo-({[2-methyl-3-(methyloxy)phenyl]carbonyl}amino)-8-azabicyclo[3.2.1]oct-8-yl]pyridine-3-carboxamide],6.00 to 6.30
6,"Cc1cc(C(N)=O)c(NC(C)C2(C)CC2)cc1C(=O)N[C@H]1C[C@H]2CC[C@@H](C1)N2c1ccc(C(=O)C2CC2)cn1 (stereo partly drawn) [N-{8-[5-(cyclopropylcarbonyl)pyridin-2-yl]-8-azabicyclo[3.2.1]oct-3-endo-yl}-2-methyl-5-{[1-(1-methylcyclopropyl)ethyl]amino}benzene-1,4-dicarboxamide]",> 6.30
7,"NC(=O)c1ccc(C(=O)N[C@H]2C[C@H]3CC[C@@H](C2)N3c2ccc(C(=O)C3CC3)cn2)cc1Nc1ccncc1 [N4-{8-[5-(cyclopropylcarbonyl)pyridin-2-yl]-8-azabicyclo[3.2.1]oct-3-endo-yl}-2-(pyridin-4-ylamino)benzene-1,4-dicarboxamide]",> 6.30
8,"Cc1cc(C(N)=O)c(N[C@H](C)C(C)C)cc1C(=O)NC1CC2CCC(C1)N2c1ccc(C(=O)C2CC2)cn1 (stereo partly drawn) [N-{8-[5-(cyclopropylcarbonyl)pyridin-2-yl]-8-azabicyclo[3.2.1]oct-3-endo-yl}-5-{[(1R)-1,2-dimethylpropyl]amino}-2-methylbenzene-1,4-dicarboxamide]",> 6.30
9,"Cc1cc(C(N)=O)c(NC(C(C)C)C(C)C)cc1C(=O)N[C@H]1C[C@H]2CC[C@@H](C1)N2c1ccc(C(=O)C2CC2)cn1 [N-{8-[5-(cyclopropylcarbonyl)pyridin-2-yl]-8-azabicyclo[3.2.1]oct-3-endo-yl}-2-methyl-5-{[2-methyl-1-(1-methylethyl)propyl]amino}benzene-1,4-dicarboxamide]",> 6.30
10,"CCc1cc(C(N)=O)c(N[C@H](C)CC)cc1C(=O)NC1CC2CCC(C1)N2c1ccc(C(=O)C2CC2)cn1 (stereo partly drawn) [N-{8-[5-(cyclopropylcarbonyl)pyridin-2-yl]-8-azabicyclo[3.2.1]oct-3-endo-yl}-2-ethyl-5-{[(1R)-1-methylpropyl]amino}benzene-1,4-dicarboxamide]",> 6.30
11,"CC(=O)c1ccc(N2[C@@H]3CC[C@H]2C[C@@H](NC(=O)c2ccc(C(N)=O)c(NCC4CC4)c2)C3)nc1 [N4-[8-(5-acetylpyridin-2-yl)-8-azabicyclo[3.2.1]oct-3-endo-yl]-2-[(cyclopropylmethyl)amino]benzene-1,4-dicarboxamide]",> 6.30
12,COc1cccc(C(=O)N[C@H]2C[C@H]3CC[C@@H](C2)N3c2ccc(C(=O)NCc3ccc(N4CCN(C)CC4)c(F)c3)cn2)c1C [N-{[3-fluoro-4-(4-methylpiperazin-1-yl)phenyl]methyl}-6-[3-endo-({[2-methyl-3-(methyloxy)phenyl]carbonyl}amino)-8-azabicyclo[3.2.1]oct-8-yl]pyridine-3-carboxamide],> 6.30
13,"CCC(C)Nc1cc(C(=O)N[C@H]2C[C@H]3CC[C@@H](C2)N3c2ccc(C(=O)C3CC3)cn2)ccc1C(N)=O (stereo partly drawn) [N4-{8-[5-(cyclopropylcarbonyl)pyridin-2-yl]-8-azabicyclo[3.2.1]oct-3-endo-yl}-2-[(1-methylpropyl)amino]benzene-1,4-dicarboxamide]",> 6.30
14,"NC(=O)c1ccc(C(=O)N[C@H]2C[C@H]3CC[C@@H](C2)N3c2ccc(C(=O)CCN3CCCCC3)cn2)cc1NCC1CC1 [2-[(cyclopropylmethyl)amino]-N4-{8-(5-(3-piperidin-1-ylpropanoyl)pyridin-2-yl]-8-azabicyclo[3.2.1]oct-3-endo-yl}benzene-1,4-dicarboxamide]",> 6.30
15,"CC(C)C(O)CC(=O)c1ccc(N2[C@@H]3CC[C@H]2C[C@@H](NC(=O)c2ccc(C(N)=O)c(NCC4CC4)c2)C3)nc1 (stereo partly drawn) [2-[(cyclopropylmethyl)amino]-N4-{8-[5-(3-hydroxy-4-methylpentanoyl)pyridin-2-yl]-8-azabicyclo[3.2.1]oct-3-endo-yl}benzene-1,4-dicarboxamide]",> 6.30
16,"CC(=O)c1ccc(N2[C@@H]3CC[C@H]2C[C@@H](NC(=O)c2ccc(C(N)=O)c(NCC(C)C)c2)C3)nc1 [N4-[8-(5-acetylpyridin-2-yl)-8-azabicyclo[3.2.1]oct-3-endo-yl]-2-[(2-methylpropyl)amino]benzefle-1,4-dicarboxamide]",> 6.30
17,COc1cccc(C(=O)N[C@H]2C[C@H]3CC[C@@H](C2)N3c2ccc(C(=O)Nc3ccc(OCCN(C)C)cc3)cn2)c1C [N-(4-{[2-(dimethylamino)ethyl]oxy}phenyl)-6-[3-endo-({[2-methyl-3-(methyloxy)phenyl]carbonyl}amino)-8-azabicyclo[3.2.1]oct-8-yl]pyridine-3-carboxamide],6.00 to 6.30
18,"Cc1cc(C(N)=O)c(N[C@H]2CCOC2)cc1C(=O)NC1CC2CCC(C1)N2c1ccc(C(=O)C2CC2)cn1 (stereo partly drawn) [N-{8-[5-(cyclopropylcarbonyl)pyridin-2-yl]-8-azabicyclo[3.2.1]oct-3-endo-yl}-2-methyl-5-[(3S)-tetrahydrofuran-3-ylamino]benzene-1,4-dicarboxamide]",> 6.30
19,"COc1cccc(C(=O)NC2CC3CCC(C2)N3c2ccc(C(=O)N[C@@H]3CC4CCC3C4)cn2)c1C (stereo partly drawn) [N-[(1R,2R,4S)-bicyclo[2.2.1]hept-2-yl]-6-[3-endo-({[2-methyl-3-(methyloxy)phenyl]carbonyl}amino)-8-azabicyclo[3.2.1]oct-8-yl]pyridine-3-carboxamide]",5.70 to 6.00
20,"NC(=O)c1cc(Br)c(C(=O)N[C@H]2C[C@H]3CC[C@@H](C2)N3c2ccc(C(=O)C3CC3)cn2)cc1NCCC(F)(F)F [2-bromo-N-{8-[5-(cyclopropylcarbonyl)pyridin-2-yl]-8-azabicyclo[3.2.1]oct-3-endo-yl}-5-[(3,3,3-trifluoropropyl)amino]benzene-1,4-dicarboxamide]",> 6.30
21,COc1cccc(C(=O)N[C@H]2C[C@H]3CC[C@@H](C2)N3c2ccc(C(=O)NCCCn3ccnc3)cn2)c1C [N-[3-(1H-imidazol-1-yl)propyl]-6-[3-endo-({[2-methyl-3-(methyloxy)phenyl]carbonyl}amino)-8-azabicyclo[3.2.1]oct-8-yl]pyridine-3-carboxamide],> 6.30
22,"CC(C)CNc1cc(C(=O)N[C@H]2C[C@H]3CC[C@@H](C2)N3c2ccc(C(=O)C3CC3)cn2)c(Br)cc1C(N)=O [2-bromo-N-{8-[5-(cyclopropylcarbonyl)pyridin-2-yl]-8-azabicyclo[3.2.1]oct-3-endo-yl}-5-[(2-methylpropyl)amino]benzene-1,4-dicarboxamide]",> 6.30
23,COc1cccc(C(=O)N[C@H]2C[C@H]3CC[C@@H](C2)N3c2ccc(C(=O)NCc3ccco3)cn2)c1C [N-(furan-2-ylmethyl)-6-[3-endo-({[2-methyl-3-(methyloxy)phenyl]carbonyl}amino)-8-azabicyclo[3.2.1]oct-8-yl]pyridine-3-carboxamide],> 6.30
24,"CC(=O)c1ccc(N2[C@@H]3CC[C@H]2C[C@@H](NC(=O)c2ccc(C(N)=O)c(NCC4CCCO4)c2)C3)nc1 (stereo partly drawn) [N4-[8-(5-acetylpyridin-2-yl)-8-azabicyclo[3.2.1]oct-3-endo-yl]-2-[(tetrahydrofuran-2-ylmethyl)amino]benzene-1,4-dicarboxamide]",> 6.30
25,COc1cccc(C(=O)N[C@H]2C[C@H]3CC[C@@H](C2)N3c2ccc(C(=O)NCCc3ccncc3)cn2)c1C [6-[3-endo-({[2-methyl-3-(methyloxy)phenyl]carbonyl}amino)-8-azabicyclo[3.2.1]oct-8-yl]-N-(2-pyridin-4-ylethyl)pyridine-3-carboxamide],5.70 to 6.00
26,"Cc1cc(C(=O)NC2CC3CCC(C2)N3c2ccc(C(=O)N[C@@H](C)c3ccc(N4CCN(C)CC4)cc3)cn2)c(C)cc1C(N)=O (stereo partly drawn) [2,5-dimethyl-N-(8-{5-[({(1S)-1-[4-(4-methylpiperazin-1-yl)phenyl]ethyl}amino)carbonyl]pyridin-2-yl}-8-azabicyclo[3.2.1]oct-3-endo-yl)benzene-1,4-dicarboxamide]",> 6.30
27,"N-[(1S,2S)-2-hydroxycyclopentyl]-6- [3-endo-({[2-methyl-3- (methyloxy)phenyl]oarbonyl}amino)- 8-azabicyclo[3.2.1]oct-8-yl]pyridine- 3-carboxamide",6.00 to 6.30
28,"Cc1cc(C(N)=O)c(NC(CF)CF)cc1C(=O)N[C@H]1C[C@H]2CC[C@@H](C1)N2c1ccc(C(=O)C2CC2)cn1 [N-{8-[5-(cyclopropylcarbonyl)pyridin-2-yl]-8-azabicyclo[3.2.1]oct-3-endo-yl}-5-{[2-fluoro-1-(fluoromethyl)ethyl]amino}-2-methylbenzene-1,4-dicarboxamide]",> 6.30
29,CCOC(=O)N1CCC(NC(=O)c2ccc(N3[C@@H]4CC[C@H]3C[C@@H](NC(=O)c3cccc(OC)c3C)C4)nc2)CC1 [ethyl 4-[({6-[3-endo-({[2-methyl-3-(methyloxy)phenyl]carbonyl}amino)-8-azabicyclo[3.2.1]oct-8-yl]pyridin-3-yl}carbonyl)amino]piperidine-1-carboxylate],> 6.30
